Entries after “also recorded” stand apart in the source; their conditions may differ.
Columns and labels:
[1] = molecular target: T1, BTK (Homo sapiens, UniProt Q06187); experiment: BTK-GFP protein abundance flow cytometry assay in HEK293A; assay type: cell-based; settings: for BTK degradation Amax: % protein remaining at the concentration at which maximum degradation is seen, HEK293A; for BTK degradation Amax / DC50: 24 h; for DC50: concentration at which 50% maximal degradation was observed, HEK293A BTK-GFP sensor cells
T1 construct: the BTK open reading frame (ORF) was first shuttled from a pcDNA-DEST40-BTK vector; expressed in transfected cells; host or cells: HEK293A (Invitrogen R70507), lentiviral transduction, blasticidin selection
In short: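 HEK293A cells stably expressing bicistronic BTK-GFP-iresRFP were treated 24 h at 37° C with 10-point 1:3 dilutions from 10 μM, DMSO at 0.1%. GFP was read by flow cytometry as median of 5,000 single cells, scaled between RFP-only cells (0%) and DMSO controls (100%). DC50 = concentration at 50% degradation; Amax = % protein remaining at maximal degradation.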

[2] = molecular target: CRBN (Homo sapiens, UniProt Q96SW2); experiment: CRBN displacement assay Format 1 (fluorescence polarization, BodipyFL-lenalidomide probe Compound HH); assay type: binding
Description: Compounds were tested in the following biochemical and cellular assays.
BodipyFL conjugated lenalidomide compound HH was used as a fluorescent probe. […] Protein and substrate were diluted in assay buffer.
All protein and probe containing solutions were handled in ‘Maxymum Recovery’ tubes (Axygen Scientific Inc., Union City, USA). […] For the plate measurements a PHERAstar reader (BMG Labtech, Offenburg, Germany) was used. The instrument was equipped with a specific optics module containing filters and dichoic mirrors for measuring the fluorescence polarization-type assay. With this module, the fluorescence of the Bodipy FL-based probe was excited at 485 nm and the emissions of the product were measured at 520 nm. The fluorescence in each well was excited by 10 flashes per measurement.
For the determination of AC50 values, the assays were performed at room temperature in 384-well plates with a total assay volume of 10.1 μL per well. The test compound was dissolved in 90% (v/v) DMSO/water. For the assays, 100 nL of the 90% (v/v) DMSO/water solution or compound solution were added per well, followed by the addition of 5 μL protein solution (protein in 1× assay buffer).
The final assay concentration of the protein was nominally 100 nM. After 45 minutes of pre-incubation at room temperature, the competition for binding was started by the addition of 5 μL probe solution (probe dissolved in assay buffer). The final concentration of the probes in the assays was 5 nM. After the addition of the probe solution, the final DMSO concentration in the assay was 0.9% (v/v). The effect of the probe on the pre-established compound-protein complex equilibrium was determined after 45 minutes (t=45 min). The AC50 value was calculated from the plot of percentage of protein saturation versus the test compound concentration by a logistics fit according to: y=A^2+(A^1−A^2)/(1+(x/AC50)^p), where y is the %-saturation value at the test compound concentration, x. A^1 is the lowest saturation value, i.e., 0%, and A^2 the maximum saturation value, i.e. 100%. The exponent, p, is the Hill coefficient.

Sequence of CRBN (Q96SW2 whole entry): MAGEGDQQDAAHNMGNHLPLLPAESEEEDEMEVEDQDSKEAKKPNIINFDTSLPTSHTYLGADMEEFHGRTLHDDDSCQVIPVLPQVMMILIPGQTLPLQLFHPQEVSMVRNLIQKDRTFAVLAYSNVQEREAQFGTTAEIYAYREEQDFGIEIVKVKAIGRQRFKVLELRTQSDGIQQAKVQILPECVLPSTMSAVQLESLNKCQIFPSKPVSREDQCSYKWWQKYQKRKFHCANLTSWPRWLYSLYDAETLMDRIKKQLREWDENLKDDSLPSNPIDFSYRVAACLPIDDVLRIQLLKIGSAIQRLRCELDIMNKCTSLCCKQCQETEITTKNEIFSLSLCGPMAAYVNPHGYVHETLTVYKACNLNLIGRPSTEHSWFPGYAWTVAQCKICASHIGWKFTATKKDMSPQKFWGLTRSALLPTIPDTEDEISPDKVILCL
T1 sequence (Q06187 whole entry): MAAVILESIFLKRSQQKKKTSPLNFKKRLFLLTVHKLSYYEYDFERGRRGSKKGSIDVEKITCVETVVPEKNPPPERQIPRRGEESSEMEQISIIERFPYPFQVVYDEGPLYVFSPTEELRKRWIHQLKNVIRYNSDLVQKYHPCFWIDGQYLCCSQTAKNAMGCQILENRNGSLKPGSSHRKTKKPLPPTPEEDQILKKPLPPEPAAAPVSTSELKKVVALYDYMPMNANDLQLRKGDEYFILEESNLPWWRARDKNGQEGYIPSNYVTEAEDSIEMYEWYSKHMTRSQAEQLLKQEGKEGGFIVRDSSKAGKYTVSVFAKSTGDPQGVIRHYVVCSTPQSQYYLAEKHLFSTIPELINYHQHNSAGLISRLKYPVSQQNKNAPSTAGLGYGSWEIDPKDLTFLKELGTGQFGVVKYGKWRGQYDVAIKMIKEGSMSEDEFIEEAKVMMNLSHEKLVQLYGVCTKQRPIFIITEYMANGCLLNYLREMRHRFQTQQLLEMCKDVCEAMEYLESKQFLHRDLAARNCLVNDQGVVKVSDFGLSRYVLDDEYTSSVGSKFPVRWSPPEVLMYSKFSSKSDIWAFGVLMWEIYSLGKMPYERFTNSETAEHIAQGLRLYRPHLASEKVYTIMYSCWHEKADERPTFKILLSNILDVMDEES

| SMILES | BTK degradation Amax [1] [%] | DC50 [1] [nM] | BTK degradation ([1]; extent of BTK degradation as stated in the text) | AC50 [2] [nM] |
| --- | --- | --- | --- | --- |
| COc1ccc(C(=O)N2CCOC3(CCN(Cc4ccc(-c5cc6c(-c7cc(F)cc(NC(=O)c8ccc(C(C)(C)O)cc8F)c7C)ncnc6[nH]5)cc4)CC3)C2)cc1N1CCC(=O)NC1=O [Compound 01, N-(3-(6-(4-((4-(3-(2,4-dioxotetrahydropyrimidin-1(2H)-yl)-4-methoxybenzoyl)-1-oxa-4,9-diazaspiro[5.5]undecan-9-yl)methyl)phenyl)-7H-pyrrolo[2,3-d]pyrimidin-4-yl)-5-fluoro-2-methylphenyl)-2-fluoro-4-(2-hydroxypropan-2-yl)benzamide] | 98 | > 3330 | no significant BTK degradation was observed; also recorded: no degradation of BTK was observed | 1590 |
| Cc1c(NC(=O)c2ccc(C(C)(C)O)cc2F)cc(F)cc1-c1ncnc2[nH]c(-c3ccc(CNCCCCCCOc4cccc(N5CCC(=O)NC5=O)c4)cc3)cc12 [Compound 14, N-(3-(6-(4-(((6-(3-(2,4-Dioxotetrahydropyrimidin-1(2H)-yl)phenoxy)hexyl)amino)methyl)phenyl)-7H-pyrrolo[2,3-d]pyrimidin-4-yl)-5-fluoro-2-methylphenyl)-2-fluoro-4-(2-hydroxypropan-2-yl)benzamide] | 25.9 | 25.9 |  | 504 |
| Cc1ncc(C(=O)NCCCCCN(C)Cc2ccc(-c3cc4c(-c5cc(F)cc(NC(=O)c6ccc(C(C)(C)O)cc6F)c5C)ncnc4[nH]3)cc2)cc1N1CCC(=O)NC1=O [Compound 17, 5-(2,4-Dioxotetrahydropyrimidin-1(2H)-yl)-N-(5-((4-(4-(5-fluoro-3-(2-fluoro-4-(2-hydroxypropan-2-yl)benzamido)-2-methylphenyl)-7H-pyrrolo[2,3-d]pyrimidin-6-yl)benzyl)(methyl)amino)pentyl)-6-methylnicotinamide] | 16.6 | 101 |  | 3550 |
| Cc1c(NC(=O)c2ccc(C(C)(C)O)cc2F)cc(F)cc1-c1ncnc2[nH]c(-c3ccc(CN4CCOC(CN(C)CCOc5cccc(N6CCC(=O)NC6=O)c5)C4)cc3)cc12 (stereo not shown) [Compound 15, N-(3-(6-(4-((2-(((2-(3-(2,4-Dioxotetrahydropyrimidin-1(2H)-yl)phenoxy)ethyl)(methyl)amino)methyl)morpholino)methyl)phenyl)-7H-pyrrolo[2,3-d]pyrimidin-4-yl)-5-fluoro-2-methylphenyl)-2-fluoro-4-(2-hydroxypropan-2-yl)benzamide] | 28.8 | 21.7 |  | 4110 |
| Cc1c(NC(=O)c2ccc(C(C)(C)O)cc2F)cc(F)cc1-c1ncnc2[nH]c(-c3ccc(CNCCCCCCn4cc(-c5cccc(N6CCC(=O)NC6=O)c5)nn4)cc3)cc12 [Compound 19, N-(3-(6-(4-(((6-(4-(3-(2,4-Dioxotetrahydropyrimidin-1(2H)-yl)phenyl)-1H-1,2,3-triazol-1-yl)hexyl)amino)methyl)phenyl)-7H-pyrrolo[2,3-d]pyrimidin-4-yl)-5-fluoro-2-methylphenyl)-2-fluoro-4-(2-hydroxypropan-2-yl)benzamide] | 48.2 | 229 |  | 104 |
| Cc1c(NC(=O)c2ccc(C(C)(C)O)cc2F)cc(F)cc1-c1ncnc2[nH]c(-c3ccc(CN4CCC5(CC4)CN(CCCc4ccc(N6CCC(=O)NC6=O)cc4)CCO5)cc3)cc12 [Compound 20, N-(3-(6-(4-((4-(3-(4-(2,4-Dioxotetrahydropyrimidin-1(2H)-yl)phenyl)propyl)-1-oxa-4,9-diazaspiro[5.5]undecan-9-yl)methyl)phenyl)-7H-pyrrolo[2,3-d]pyrimidin-4-yl)-5-fluoro-2-methylphenyl)-2-fluoro-4-(2-hydroxypropan-2-yl)benzamide] | 37.1 | 27.7 |  | > 100000 |
| Cc1c(NC(=O)c2ccc(C(C)(C)O)cc2F)cc(F)cc1-c1ncnc2[nH]c(-c3ccc(CNCCN4CCC(Oc5ccc(N6CCC(=O)NC6=O)cc5)CC4)cc3)cc12 [Compound 29, N-(3-(6-(4-(((2-(4-(4-(2,4-dioxotetrahydropyrimidin-1(2H)-yl)phenoxy)piperidin-1-yl)ethyl)amino)methyl)phenyl)-7H-pyrrolo[2,3-d]pyrimidin-4-yl)-5-fluoro-2-methylphenyl)-2-fluoro-4-(2-hydroxypropan-2-yl)benzamide] | 40.5 | 40.2 |  | 2390 |
| Cc1c(NC(=O)c2ccc(C(C)(C)O)cc2F)cc(F)cc1-c1ncnc2[nH]c(-c3ccc(CN4CCN(C(=O)N5CCN(CCC#Cc6cccc(N7CCC(=O)NC7=O)c6)CC5)CC4)cc3)cc12 [Compound 03, N-(3-(6-(4-((4-(4-(4-(3-(2,4-dioxotetrahydropyrimidin-1(2H)-yl)phenyl)but-3-yn-1-yl)piperazine-1-carbonyl)piperazin-1-yl)methyl)phenyl)-7H-pyrrolo[2,3-d]pyrimidin-4-yl)-5-fluoro-2-methylphenyl)-2-fluoro-4-(2-hydroxypropan-2-yl)benzamide] | 41.9 | 24.8 |  | 257 |
| Cc1ccc(N2CCC(=O)NC2=O)cc1CNC(=O)CCCCN(C)Cc1ccc(-c2cc3c(-c4cc(F)cc(NC(=O)c5ccc(C(C)(C)O)cc5F)c4C)ncnc3[nH]2)cc1 [Compound 08, N-(3-(6-(4-(((5-((5-(2,4-dioxotetrahydropyrimidin-1(2H)-yl)-2-methylbenzyl)amino)-5-oxopentyl)(methyl)amino)methyl)phenyl)-7H-pyrrolo[2,3-d]pyrimidin-4-yl)-5-fluoro-2-methylphenyl)-2-fluoro-4-(2-hydroxypropan-2-yl)benzamide] | 55.1 | > 3330 |  | 2100 |
| Cc1c(NC(=O)c2ccc(C(C)(C)O)cc2F)cc(F)cc1-c1ncnc2[nH]c(-c3ccc(CN4CCN(CCNC(=O)COc5ccc(N6CCC(=O)NC6=O)cc5)CC4)cc3)cc12 [Compound 26, N-(3-(6-(4-((4-(2-(2-(4-(2,4-Dioxotetrahydropyrimidin-1(2H)-yl)phenoxy)acetamido)ethyl)piperazin-1-yl)methyl)phenyl)-7H-pyrrolo[2,3-d]pyrimidin-4-yl)-5-fluoro-2-methylphenyl)-2-fluoro-4-(2-hydroxypropan-2-yl)benzamide] | 10.6 | 11.2 |  | 3920 |
| Cc1c(NC(=O)c2ccc(C(C)(C)O)cc2F)cc(F)cc1-c1ncnc2[nH]c(-c3ccc(CN4CCN(C(=O)N5CCN(CCC#Cc6ccc(N7CCC(=O)NC7=O)cc6)CC5)CC4)cc3)cc12 [Compound 23, N-(3-(6-(4-((4-(4-(4-(4-(2,4-Dioxotetrahydropyrimidin-1(2H)-yl)phenyl)but-3-yn-1-yl)piperazine-1-carbonyl)piperazin-1-yl)methyl)phenyl)-7H-pyrrolo[2,3-d]pyrimidin-4-yl)-5-fluoro-2-methylphenyl)-2-fluoro-4-(2-hydroxypropan-2-yl)benzamide] | 9.6 | 2.8 |  | > 50500 |
| Cc1c(NC(=O)c2ccc(C(C)(C)O)cc2F)cc(F)cc1-c1ncnc2[nH]c(-c3ccc(CN4CCC(CCNC(=O)COc5cccc(N6CCC(=O)NC6=O)c5)CC4)cc3)cc12 [Compound 11, N-(3-(6-(4-((4-(2-(2-(3-(2,4-Dioxotetrahydropyrimidin-1(2H)-yl)phenoxy)acetamido)ethyl)piperidin-1-yl)methyl)phenyl)-7H-pyrrolo[2,3-d]pyrimidin-4-yl)-5-fluoro-2-methylphenyl)-2-fluoro-4-(2-hydroxypropan-2-yl)benzamide] | 2.3 | 2.2 |  | 599 |
| Cc1ccc(OCC(=O)N2CCN(CCOc3ccc(-c4cc5c(-c6cc(F)cc(NC(=O)c7ccc(C(C)(C)O)cc7F)c6C)ncnc5[nH]4)cc3)CC2)cc1N1CCC(=O)NC1=O [Compound 10, N-(3-(6-(4-(2-(4-(2-(3-(2,4-Dioxotetrahydropyrimidin-1(2H)-yl)-4-methylphenoxy)acetyl)piperazin-1-yl)ethoxy)phenyl)-7H-pyrrolo[2,3-d]pyrimidin-4-yl)-5-fluoro-2-methylphenyl)-2-fluoro-4-(2-hydroxypropan-2-yl)benzamide] | 3.1 | 3.3 |  | 466 |
